Results on 1 compound are retold here after article PMC5642494 (Oncotarget, 2017).

The test deals with pRb (Ser780). Description: High content imaging of Rb phosphorylation (Ser780), EFM-19. The test is classed as cell-based. Particulars: Homo sapiens, 16 hours, mean ± Stdev n = 2. How it is done: Relative IC50/EC50 values were determined by curve fitting to a four parameter logistic equation: Y = bottom + ((top-bottom)/ (1+exp(HillSlope*(X – LnIC50)), where X is the natural log of dose/concentration, Y is response, decreasing as X increases, top and bottom are plateaus in the same units as Y, lnIC50 is the natural log of potency, in the same log units as X, and HillSlope measures the steepness of the curve. Data were plotted using GraphPad Prism.
As controls, cells were treated with 10 µM palbociclib or vehicle ( 0.2 % v/v DMSO). Additional details for cell-based assays are provided in the Supplemental Methods. […]
www.impactjournals.com/oncotarget/ Oncotarget Supplementary Materials
Preclinical characterization of abemaciclib in hormone receptor […]
METHODS High content imaging cell-based assays for monitoring phosphorylation of Rb (ser780), G1 arrest and
Enzyme kinetics of CDK6/cyclin D3 complexes Cells were fixed with para-formaldehyde and Rb phosphorylation at Serine 780 was detected using CDK6/cyclin D3 activity was measured by the a primary mouse anti-Rb (PS780) antibody followed phosphorylation of CTRF using [g-33P] […] Plates were read in an kinase buffer containing 68 mM Hepes at pH 7.5, 6.67 mM Acumen Explorer eX3 (TTP Labtech). […]
(EDTA) was used to determine the level of background evaluated by measuring PI signal using high content 33P in the absence of enzyme activity. […]

By IC50 is commonly meant the concentration that gives 50% inhibition. Lower therefore signals higher potency. On to `CCN1CCN(Cc2ccc(Nc3ncc(F)c(-c4cc(F)c5nc(C)n(C(C)C)c5c4)n3)nc2)CC1` [abemaciclib, Abemaciclib], for which half-maximal inhibition (IC50) required 12 ± 11 nM.
